Assay results: DBAASP
Converted amounts (≈) assume the structure as drawn. “And” between values parts separate entries of the source, which are not always exact repeats. Identical values can stand only once. One block for each molecule: values may come before it.

Assays:
Assay in all cases: ≥ marks a high value that may be exact or a test limit, other limits are often not marked, values filed in µg/mL are converted to µM
[1] = tested on: Escherichia coli NEB5alpha
[2] = tested on: Bacillus subtilis ATCC 6051
[3] = tested on: Escherichia coli ATCC 25922
[4] = tested on: Salmonella typhimurium ATCC 7731
[5] = tested on: Staphylococcus epidermidis ATCC 12228
[6] = tested on: Salmonella enterica subsp. enterica serovar Typhimurium ATCC 14028
Escherichia coli UB1005 = tested on: Escherichia coli UB1005
[7] = tested on: Pseudomonas aeruginosa PAO1
[8] = tested on: Pseudomonas aeruginosa ATCC 27853
[9] = tested on: Bacillus subtilis CMCC 63501
[10] = tested on: Staphylococcus aureus ATCC 29213
[11] = tested on: Enterococcus faecalis ATCC 29212
Escherichia coli DL7 = tested on: Escherichia coli DL7
[12] = tested on: Klebsiella aerogenes ATCC 13048
[13] = tested on: Cronobacter sakazakii DPC 6440
[14] = tested on: Listeria monocytogenes LO28
Bacillus megaterium = tested on: Bacillus megaterium
Aerococcus viridans = tested on: Aerococcus viridans
Micrococcus luteus = tested on: Micrococcus luteus
Candida albicans = tested on: Candida albicans
Bacillus subtilis = tested on: Bacillus subtilis
Serratia marcescens = tested on: Serratia marcescens
Streptococcus mutans = tested on: Streptococcus mutans
Salmonella typhimurium = tested on: Salmonella typhimurium
Cryptococcus neoformans = tested on: Cryptococcus neoformans
Staphylococcus aureus = tested on: Staphylococcus aureus
Escherichia coli = tested on: Escherichia coli
Streptococcus pneumoniae = tested on: Streptococcus pneumoniae
Saccharomyces cerevisiae = tested on: Saccharomyces cerevisiae
Pseudomonas putida = tested on: Pseudomonas putida
[15] = tested on: Pectobacterium carotovorum

- MIC [5]: 0.25 µM (≈ 0.468 µg/mL)
- MIC (Escherichia coli DL7): 0.25 µM and 0.125 µM
- MIC [12]: ≥ 32 µM
SMILES: CC[C@H](C)[C@H](NC(=O)[C@@H](N)C(C)C)C(=O)N[C@@H](Cc1cnc[nH]1)C(=O)N[C@@H](CCCCN)C(=O)N[C@@H](CC(C)C)C(=O)N[C@@H](C)C(=O)N[C@@H](CCCCN)C(=O)N[C@@H](CC(C)C)C(=O)N[C@@H](C)C(=O)N[C@@H](CCCCN)C(=O)N[C@@H](CCCCN)C(=O)N[C@@H](CC(C)C)C(=O)N[C@@H](C)C(=O)N[C@@H](CCCCN)C(=O)N[C@@H](CC(C)C)C(=O)N[C@@H](C)C(=O)N[C@@H](CCCCN)C(N)=O [VIHKLAKLAKKLAKLAK]

- MIC [13]: 19.5 µM (≈ 36.2 µg/mL)
- MIC [14]: 2.44 µM (≈ 4.52 µg/mL)
SMILES: CC[C@H](C)[C@H](NC(=O)[C@@H](NC(=O)[C@H](CCCCN)NC(=O)[C@@H](NC(=O)[C@H](CCCCN)NC(=O)[C@H](C)NC(=O)[C@H](CCC(N)=O)NC(=O)[C@@H](NC(=O)[C@@H](N)Cc1c[nH]c2ccccc12)[C@@H](C)CC)[C@@H](C)O)C(C)C)C(=O)N[C@@H](C)C(=O)N[C@@H](Cc1ccc(O)cc1)C(=O)N[C@H](C(=O)N[C@@H](CCCN=C(N)N)C(=O)N[C@@H](Cc1ccc(O)cc1)C(=O)N[C@@H](CC(C)C)C(=O)O)C(C)C [WIQAKTKVIAYVRYL]

- MIC (Bacillus megaterium): 28.3 µM (≈ 42.8 µg/mL)
- MIC (Aerococcus viridans): 28.3 µM (≈ 42.8 µg/mL)
- MIC (Micrococcus luteus): 28.3 µM (≈ 42.8 µg/mL)
SMILES: CSCC[C@H](NC(=O)[C@H](CCCN=C(N)N)NC(=O)[C@H](CCC(N)=O)NC(=O)[C@@H]1CSSC[C@H](NC(=O)[C@@H](N)Cc2ccc(O)cc2)C(=O)N[C@@H](CC(N)=O)C(=O)N[C@@H](CCCN=C(N)N)C(=O)N[C@@H](CCCN=C(N)N)C(=O)N[C@@H]([C@@H](C)O)C(=O)NCC(=O)N[C@@H](CCCCN)C(=O)N1)C(=O)O [YCNRRTGKCQRM]

- MIC [13]: ≥ 312 µM
- MIC [14]: ≥ 156 µM
SMILES: CC[C@H](C)[C@H](NC(=O)[C@@H](N)Cc1c[nH]c2ccccc12)C(=O)N[C@@H](CCC(N)=O)C(=O)N1CCC[C@H]1C(=O)N[C@@H](CCCCN)C(=O)N[C@H](C(=O)N[C@@H](CCCCN)C(=O)N[C@H](C(=O)N[C@H](C(=O)N1CCC[C@H]1C(=O)N[C@@H](C)C(=O)N[C@H](C(=O)N[C@@H](CCCN=C(N)N)C(=O)N[C@@H](C)C(=O)N[C@@H](CC(C)C)C(=O)O)C(C)C)[C@@H](C)CC)C(C)C)[C@@H](C)O [WIQPKTKVIPAVRAL]

The remaining lines, values behind:

SMILES: CC(C)C[C@H](NC(=O)[C@H](CCCN=C(N)N)NC(=O)[C@H](CC(C)C)NC(=O)[C@H](CC(C)C)NC(=O)[C@H](CCC(N)=O)NC(=O)[C@H](CCC(=O)O)NC(=O)[C@@H](N)CC(C)C)C(=O)N[C@@H](CCCCN)C(=O)N[C@@H](CCCCN)C(=O)N[C@@H](Cc1ccc(O)cc1)C(=O)O [LEQLLRLKKY]
- MIC [1]: ≥ 633 µM
- MIC [2]: ≥ 1270 µM

SMILES: CC[C@H](C)[C@H](NC(=O)[C@H](CCC(=O)O)NC(=O)CNC(=O)[C@@H](NC(=O)[C@H](Cc1ccccc1)NC(=O)[C@H](C)NC(=O)[C@H](CCCCN)NC(=O)CNC(=O)[C@H](Cc1ccccc1)NC(=O)[C@H](CCCCN)NC(=O)[C@H](CCCCN)NC(=O)[C@H](C)N)C(C)C)C(=O)N[C@@H](CCSC)C(N)=O [AKKFGKAFVGEIM]
- MIC [3]: 32 µM (≈ 45.6 µg/mL)
- MIC [4]: ≥ 64 µM
- MIC [5]: > 64 µM
- MIC [6]: > 64 µM
- MIC (Escherichia coli UB1005): ≥ 64 µM
- MIC [7]: > 64 µM
- MIC [8]: > 64 µM
- MIC [9]: ≥ 64 µM
- MIC [10]: > 64 µM
- MIC [11]: > 64 µM

SMILES: CC(C)C[C@H](NC(=O)CN)C(=O)N[C@@H](CCC(N)=O)C(=O)N[C@@H](Cc1ccccc1)C(=O)N1CCC[C@H]1C(=O)N[C@H](C(=O)NCC(=O)N[C@@H](CCCN=C(N)N)C(=O)N[C@H](C(=O)N[C@@H](Cc1cnc[nH]1)C(=O)N[C@@H](CCCN=C(N)N)C(=O)N[C@@H](CC(C)C)C(=O)N[C@@H](CC(C)C)C(=O)N[C@@H](CCCN=C(N)N)C(=O)N[C@@H](CCCCN)C(=O)O)C(C)C)C(C)C [GLQFPVGRVHRLLRK]
- MIC (Candida albicans): 4.5 µM (≈ 8 µg/mL)
- MIC (Bacillus subtilis): 2.25 µM (≈ 4 µg/mL)
- MIC (Serratia marcescens): 1.13 µM (≈ 2 µg/mL)
- MIC (Streptococcus mutans): 2.25 µM (≈ 4 µg/mL)
- MIC (Salmonella typhimurium): 1.13 µM (≈ 2 µg/mL)
- MIC (Cryptococcus neoformans): 4.5 µM (≈ 8 µg/mL)
- MIC (Staphylococcus aureus): 4.5 µM (≈ 8 µg/mL)
- MIC (Escherichia coli): 2.25 µM (≈ 4 µg/mL)
- MIC (Streptococcus pneumoniae): 2.25 µM (≈ 4 µg/mL)
- MIC (Saccharomyces cerevisiae): 4.5 µM (≈ 8 µg/mL)
- MIC (Pseudomonas putida): 2.25 µM (≈ 4 µg/mL)

SMILES: CC[C@H](C)[C@H](NC(=O)[C@H](C)NC(=O)[C@@H](NC(=O)[C@@H]1CCCN1C(=O)[C@@H](NC(=O)[C@H](CC(C)C)NC(=O)[C@@H]1CCCN1C(=O)[C@H](Cc1c[nH]c2ccccc12)NC(=O)[C@H](Cc1ccccc1)NC(=O)[C@H](CCCN=C(N)N)NC(=O)[C@@H](N)CCCCN)C(C)C)C(C)C)C(=O)N[C@@H](CC(N)=O)C(=O)N[C@H](C(=O)N[C@H](C(=O)N[C@@H](C)C(N)=O)C(C)C)[C@@H](C)O [KRFWPLVPVAINTVA]
- MIC [3]: > 128 µM
- MIC [4]: ≥ 128 µM
- MIC [5]: 128 µM (≈ 219 µg/mL)
- MIC [6]: > 128 µM
- MIC (Escherichia coli UB1005): ≥ 64 µM
- MIC [8]: > 128 µM
- MIC [9]: ≥ 128 µM
- MIC [10]: > 128 µM

SMILES: CC[C@H](C)[C@H](N)C(=O)N[C@@H](CC(N)=O)C(=O)NCC(=O)N[C@@H](CCSC)C(=O)N1CCC[C@H]1C(=O)N[C@@H](CCC(=O)O)C(=O)N[C@@H](CCC(=O)O)C(=O)N[C@H](C(=O)N[C@H](C(=O)N[C@@H](C)C(=O)N[C@@H](C)C(=O)O)C(C)C)C(C)C [INGMPEEVVAA]
- MIC [1]: ≥ 1000 µM
- MIC [2]: ≥ 1000 µM

SMILES: CC[C@H](C)[C@H](NC(=O)CNC(=O)CNC(=O)[C@@H](NC(=O)[C@@H]1CCCN1C(=O)[C@H](Cc1ccccc1)NC(=O)[C@H](CCC(N)=O)NC(=O)[C@H](CC(C)C)NC(=O)CNC(=O)[C@H](C)NC(=O)[C@@H](N)CCCN=C(N)N)C(C)C)C(=O)NCC(=O)N[C@@H](CCCCN)C(=O)N[C@@H](Cc1ccccc1)C(=O)N[C@@H](CC(C)C)C(=O)N[C@@H](Cc1cnc[nH]1)C(=O)N[C@@H](CO)C(=O)N[C@@H](C)C(=O)N[C@@H](CCCCN)C(=O)N[C@@H](CCCCN)C(=O)N[C@@H](Cc1ccccc1)C(=O)NCC(=O)N[C@@H](CCCCN)C(=O)O [RAGLQFPVGGIGKFLHSAKKFGK]
- MIC (Candida albicans): 1.64 µM (≈ 4 µg/mL)
- MIC (Bacillus subtilis): 6.55 µM (≈ 16 µg/mL)
- MIC (Serratia marcescens): 6.55 µM (≈ 16 µg/mL)
- MIC (Streptococcus mutans): 6.55 µM (≈ 16 µg/mL)
- MIC (Salmonella typhimurium): 3.27 µM (≈ 8 µg/mL)
- MIC (Cryptococcus neoformans): 1.64 µM (≈ 4 µg/mL)
- MIC (Staphylococcus aureus): 6.55 µM (≈ 16 µg/mL)
- MIC (Escherichia coli): 6.55 µM (≈ 16 µg/mL)
- MIC (Streptococcus pneumoniae): 6.55 µM (≈ 16 µg/mL)
- MIC (Saccharomyces cerevisiae): 1.64 µM (≈ 4 µg/mL)
- MIC (Pseudomonas putida): 13.1 µM (≈ 32 µg/mL)

SMILES: CC[C@H](C)[C@H](NC(=O)[C@H](C)NC(=O)[C@@H](N)CS)C(=O)N[C@@H](CCC(=O)O)C(=O)N[C@@H](Cc1cnc[nH]1)C(=O)N[C@@H](CCSC)C(=O)N[C@@H](CCCN=C(N)N)C(=O)N[C@H](C(=O)N1CCC[C@H]1C(=O)N[C@@H](CC(C)C)C(=O)N[C@@H](CCCCN)C(=O)N1CCC[C@H]1C(=O)N[C@@H](Cc1ccccc1)C(=O)N[C@@H](CO)C(=O)N[C@@H](Cc1ccccc1)C(=O)NCC(=O)N1CCC[C@H]1C(=O)N1CCC[C@H]1C(=O)N[C@@H](Cc1ccc(O)cc1)C(=O)N[C@@H](CC(N)=O)C(=O)N[C@@H](CC(C)C)C(=O)O)[C@@H](C)O [CAIEHMRTPLKPFSFGPPYNL]
- MIC [15]: 3.46 µM (≈ 8.38 µg/mL)
